The values that follow come from PubChem BioAssay (NCI).

Holding throughout (assay): NCI-60 cell line screen, 48 h
The test system of assay [1] is HOP-92 NSCLC.
For assay [2], the system named is M14 melanoma.
Assay [3] deals with 786-0 renal.
The subject of assay [4] is NCI/ADR-RES ovarian.
For assay [5], the system named is MOLT-4 leukemia.
In assay [6] the test system is SN12C renal.
The subject of assay [7] is DU-145 prostate.
The subject of assay [8] is SK-MEL-2 melanoma.
Assay [9] deals with SK-OV-3 ovarian.
Assay [10] concerns MDA-MB-435.

The structures appear in SMILES notation.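 Assay format: 96-well plates, 48-hour exposure. TGI: concentration producing complete growth inhibition.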

Take `COC(=O)[C@H]1[C@@H](O)[C@@]2(O)c3c(OC)cc(OC)cc3O[C@@]2(c2ccc3c(c2)OCO3)[C@@H]1c1ccccc1`: the TGI in assay [1] is > 50 µM; in [2], 0.0414 µM; in assay [3], 0.0944 µM; in assay [4], 0.241 µM; in assay [5], 0.0482 µM; in assay [6] it was 1.46 µM. Also, the TGI is 4.51 µM in assay [7], 0.45 µM in [8], 1.54 µM in assay [9] and > 50 µM in assay [10].

In the case of `C/C(=N/NC(=S)N(C)C)c1ccccc1O`, the TGI was > 100 µM in assay [1]; 23.4 µM in assay [2]; > 100 µM in assay [3]; 13.8 µM in assay [4]; 97.7 µM in [5]; > 100 µM in [6]. Also, the TGI in assay [7], in assay [8], in [9] and in assay [10] was > 100 µM throughout.

As to `C[C@@H](NC(=O)[C@@H]1C[C@]1(C)CO)c1cccc2ccccc12`, the TGI in assay [1], in assay [2], in [3], in assay [4], in [5] and in assay [6] was > 100 µM throughout. Further, the TGI in [7], in [8], in assay [9] and in assay [10] was > 100 µM throughout.

As to `CCOC(=O)C1(C#N)C2(C#N)C(N)=NC(ON=C(C)C)(ON=C(C)C)C12C#N` (stereo not given), the TGI in assay [1], in assay [2], in assay [3], in assay [4], in assay [5] and in assay [6] was > 100 µM in each case. The TGI in assay [7], in [8], in [9] and in [10] was > 100 µM throughout.

Turning to `CCCCC(=C=C(C)CO)C1CCCN1C(=O)OC(C)(C)C` (stereo not given), the TGI in [1] is 25.6 µM; in assay [2], 35.4 µM; in assay [3] it was 30.5 µM; in [4] it was 42.5 µM; in assay [5], 33.8 µM; in [6] it was 31.5 µM. Also, the TGI in [7] came out at 34.1 µM; in assay [8] it was 30.6 µM; in [9], 67.4 µM; in assay [10], 35.8 µM.

`CC(C)(C)c1cc(C(=O)C2Cc3ccccc3C(=O)O2)cc(C(C)(C)C)c1O` (stereo not given): the TGI was 45.3 µM in assay [1]; 25.6 µM in [2]; 24.8 µM in assay [3]; 50.5 µM in assay [4]; > 100 µM in assay [5]; 26.5 µM in assay [6]. Moreover, the TGI in [7] came to 28.3 µM; in assay [8], 23.9 µM; in assay [9], 56.3 µM; in assay [10], 32.6 µM.

With `CCCCCCCCCC(O)CC(=O)c1c(O)cccc1O` (stereo not given), the TGI in assay [1] was determined as 64.8 µM; in assay [2], 44.2 µM; in assay [3], 50.4 µM; in assay [4], 38.5 µM; in assay [5], 41.6 µM; in assay [6] it was 63.9 µM. Further, the TGI was > 100 µM in [7], 35.7 µM in assay [8], 41.3 µM in assay [9] and 68.1 µM in assay [10].

In the case of `COC1=CC(=O)c2c(cc(COP(N)(=O)N(CCCl)CCCl)n2C)C1=O` (stereo not given), the TGI in assay [1] was determined as 6.66 µM; in assay [2] it was 2.74 µM; in [3] it was 10.9 µM; in [4] it was 19.8 µM; in assay [5] it was 0.382 µM; in assay [6] it was 1.31 µM. Also, the TGI in assay [7] is 5.71 µM; in assay [8], 4.12 µM; in assay [9], 5.9 µM; in assay [10] it was 3.2 µM.

As for `CCNC(=O)NNc1ncnc2c1c(-c1ccc(Cl)cc1)cn2-c1ccc(C)cc1`, the TGI in assay [1] stood at 34 µM; in assay [2], 32.3 µM; in [3], 32.8 µM; in assay [4] it was 38.4 µM; in assay [5], 45.4 µM; in assay [6] it was 30.3 µM. Moreover, the TGI in assay [7] worked out at 44.9 µM; in assay [8], 42.2 µM; in assay [9], 73.7 µM; in assay [10] it was 30.7 µM.

For the compound `Cc1ccc(S(=O)(=O)/N=C2/N(C)CCCS2(=O)=O)cc1`, the TGI in assay [1], in assay [2], in assay [3], in assay [4], in [5] and in assay [6] was > 100 µM each time. For the same compound, the TGI in assay [7], in assay [8], in [9] and in [10] was > 100 µM each time.

For the compound `O=C(NNS(=O)(=O)c1ccc(Br)cc1)c1ccc(Cl)cc1NC(=O)C12CC3CC(CC(C3)C1)C2`, the TGI in [1] was found to be 27.3 µM; in assay [2] it was 33.6 µM; in assay [3], 40 µM; in [4], 32.5 µM; in assay [5], 73.9 µM; in assay [6], 36.1 µM. Besides, the TGI in assay [7] came to 33.4 µM; in assay [8], 25.3 µM; in assay [9] it was 30.3 µM; in assay [10], 25.8 µM.
